From patent publication US20250325485A1, “STABLE COMPOSITIONS OF FOXY-5 HEXAPEPTIDE WITH HIGH SOLUBILITY” (WNTRESEARCH AB, priority 2021, published 2025)
≈ marks a conversion by molar mass, not a printed value. Counter-ions that a name gives are not always drawn. Like-named read-outs stand apart in the source and are kept apart here. Peptide text beside a SMILES is read from it. * marks the point of attachment. For = O=C*

What was measured:
[1] = Stability study at 40° C. for two and four weeks (HPLC purity, appearance); type: physicochemical; settings: closed containers
Method: A stability study of the compositions according to the first aspect (and the previously prepared trisodium salt) at 40° C. for two and four weeks was performed. Some general trends were found. […] The purity of the tri-salts varied more than the purity of the di-salts (HPLC purity 78-95% at 4 weeks for the tri-salts vs. 87-96% at 4 weeks for the di-salts). Furthermore, as appears from FIG. 6, the absolute purity of the compositions comprising amino acids was generally higher after 4 weeks at 40° C. when compared with compositions comprising other salt formers (value at 4 weeks: ˜90% vs. ˜85% for tri-salts and ˜95% vs. ˜90% for di-salts).
The stability test data for all formed compositions and the starting material itself (Foxy-5 free acid) were measured at 0, 2 and 4 weeks storage @40° C. and included in FIG. 10.
The following parameters for the substance-specific UPLC method were employed for the purity measurements of the stability samples: […]

[2] = High pH treatment of aqueous Foxy-5 solution tracked by HPLC; type: physicochemical; settings: after 2 hours at pH=9
Method: After stirring of the Foxy-5 solution for 2 hours at pH 9 (see FIG. 4), the aspartimide peak in the HPLC chromatogram completely disappeared (<LOD). It is known that ring opening of aspartimides occurs at high pH, leading to the formation of either the parent compound and the […] and the D-Asp derivatives. However, significant dimer formation was observed (2.5% after 2 hours at pH=9). The identification of the dimer in the chromatogram was confirmed by co-elution with separately synthesized reference material.

[3] = pKa by potentiometric titration (Sirius T3); type: physicochemical; settings: ISA water, 25° C., read-out: pKa [measured]
Method: 2.0.0.0 software. An automated aqueous titration method was used with initial values of 1.0 mg of solid API dissolved in 1.5 mL of ISA water and three sequential titrations on the same sample. In all three titrations, the sample solution was adjusted with 0.5 M KOH to a starting pH of 12 and slowly titrated with 0.5 M HCl to a final pH of 2.
Each titration curve was fit using the SiriusT3Refine Vers. 2.0.0.0 software, and the corresponding pKa values were calculated. […]

[4] = Solubility / lyophilization concentration of Foxy-5 drug substance (background statements); type: physicochemical; settings: for solubility: water
Description: The current manufacturing process of Foxy-5 applies a product concentration for the final lyophilization of only 3 g/L due to the limited solubility of the salt free drug substance (DS) in water. This presents a bottleneck which severely limits the production throughput for the commercial manufacture of Foxy-5.
While this achievement is impressive, it nonetheless remains problematic to produce Foxy-5 on commercial scale when the final step requires such a high dilution.
Consequently, an increase of batch size by other solubilizing techniques than solvent polarity adjustments was proposed.

FIG. 10 = test: FIG. 10
Method: Table printed on a drawing sheet, FIG. 10
The patent's description of the figure: FIG. 10
First reader's note: Storage stability of Foxy-5 free acid and its salts shown as HPLC purity and impurity levels (Ala, aspartimide, dimer) initially and after 2 and 4 weeks at 40°C; decimal commas as printed.

[5] = Conversion of Foxy-5 to mono-, di- and tri-sodium salts; type: physicochemical
Method: As Foxy-5 contains three carboxylic groups (Asp^2, Glu^5, and the C-terminal carboxylic acids), the mono, di, and tri-sodium salts were generated by treating aqueous slurries of Foxy-5 (25 g/L) with 1 eq., 2 eq. and 3 eq. of sodium hydroxide. As starting material, a batch of Foxy-5 free acid containing very low amounts of two known impurities, the aspartimide (<0.1%) and the dimer, (<0.1%) was used (structures, see FIG. 2).
The di-sodium salt could be completely dissolved within 10 minutes after addition of NaOH (2 eq., pH=4.57). […] After lyophilization, 0.07% dimer and 0.79% aspartimide were detected.
The tri-sodium salt dissolved within 5 minutes after addition of NaOH (3 eq., pH=6.76) with minimal increase of the aspartimide impurity, but increased formation of the dimer was observed. After lyophilization, 0.41% dimer and 0.17% of the aspartimide were detected.

[6] = cited from earlier work

SMILES	After 2 weeks @ 40°C | Ala (area%) (FIG. 10)	After 2 weeks @ 40°C | Aspartimide (area%) (FIG. 10)	After 2 weeks @ 40°C | Dimer (area%) (FIG. 10)	After 2 weeks @ 40°C | HPLC purity (area%) (FIG. 10)	After 4 weeks @ 40°C | Ala (area%) (FIG. 10)	After 4 weeks @ 40°C | Aspartimide (area%) (FIG. 10)	After 4 weeks @ 40°C | Dimer (area%) (FIG. 10)	After 4 weeks @ 40°C | HPLC purity (area%) (FIG. 10)	other results
CSCC[C@H](NC=O)C(=O)N[C@@H](CC(=O)O)C(=O)NCC(=O)N[C@@H](CS)C(=O)N[C@@H](CCC(=O)O)C(=O)N[C@@H](CC(C)C)C(=O)O [DEA-P1] (For-MDGCEL-OH)									appearance after storage ([1]; 2 and 4 weeks at 40° C.): glassy appearance
CSCC[C@H](NC=O)C(=O)N[C@@H](CC(=O)O)C(=O)NCC(=O)N[C@@H](CS)C(=O)N[C@@H](CCC(=O)O)C(=O)N[C@@H](CC(C)C)C(=O)O [Foxy-5, For-Met-Asp-Gly-Cys-Glu-Leu-OH] (For-MDGCEL-OH)									dimer formation [2]: 2.5%; pKa ([3]; ASP carboxylic (acidic)): 3.98; pKa ([3]; CYS thiol (acidic)): 9.01; pKa ([3]; GLU carboxylic (acidic)): 4.79; pKa ([3]; terminal carboxylic (acidic)): 3.39; DS concentration applicable in alternative lyophilization process ([4]; aqueous 30% acetonitrile solution as solvent): up to 7 g/L; aqueous solubility ([4]; free Foxy-5 hexapeptide, for comparison, listed as free Foxy-5 peptide): 3 mg/mL (≈ 4.32 mM); solubility ([4]; free Foxy-5 hexapeptide, for comparison, read-out: aqueous solubility): ~3000 µg/mL (≈ 4.32 mM); solubility ([4]; read-out: product concentration for the final lyophilization, limited by solubility of salt free drug substance in water): 3000 µg/mL
CSCC[C@H](NC=O)C(=O)N[C@@H](CC(=O)O)C(=O)NCC(=O)N[C@@H](CS)C(=O)N[C@@H](CCC(=O)O)C(=O)N[C@@H](CC(C)C)C(=O)O [NH3 Di salt] (For-MDGCEL-OH)	0 area%	4,45 area%	0,38 area%	92,27 area%	0,00 area%	5,52 area%	0,27 area%	89,75 area%	
CSCC[C@H](NC=O)C(=O)N[C@@H](CC(=O)O)C(=O)NCC(=O)N[C@@H](CS)C(=O)N[C@@H](CCC(=O)O)C(=O)N[C@@H](CC(C)C)C(=O)O [NH3 Tri salt] (For-MDGCEL-OH)	0 area%	4,10 area%	2,95 area%	88,64 area%	0,00 area%	3,88 area%	3,37 area%	86,45 area%	
CSCC[C@H](NC=O)C(=O)N[C@@H](CC(=O)O)C(=O)NCC(=O)N[C@@H](CS)C(=O)N[C@@H](CCC(=O)O)C(=O)N[C@@H](CC(C)C)C(=O)O [NMG Di salt] (For-MDGCEL-OH)	0 area%	3,85 area%	0,93 area%	93,22 area%	0,00 area%	6,17 area%	0,81 area%	91,23 area%	
CSCC[C@H](NC=O)C(=O)N[C@@H](CC(=O)O)C(=O)NCC(=O)N[C@@H](CS)C(=O)N[C@@H](CCC(=O)O)C(=O)N[C@@H](CC(C)C)C(=O)O [NMG Tri salt] (For-MDGCEL-OH)	0 area%	1,76 area%	1,13 area%	95,97 area%	0,00 area%	3,06 area%	0,82 area%	95,14 area%	
CSCC[C@H](NC=O)C(=O)N[C@@H](CC(=O)O)C(=O)NCC(=O)N[C@@H](CS)C(=O)N[C@@H](CCC(=O)O)C(=O)N[C@@H](CC(C)C)C(=O)O [NMG-P6] (For-MDGCEL-OH)									appearance after storage ([1]; 2 weeks at 40° C.): sticky, glassy appearance
CSCC[C@H](NC=O)C(=O)N[C@@H](CC(=O)O)C(=O)NCC(=O)N[C@@H](CS)C(=O)N[C@@H](CCC(=O)O)C(=O)N[C@@H](CC(C)C)C(=O)O [Na Tri salt] (For-MDGCEL-OH)	13,4 area%	0,53 area%	13,20 area%	68,15 area%	14,70 area%	0,30 area%	16,80 area%	60,34 area%	
CSCC[C@H](NC=O)C(=O)N[C@@H](CC(=O)O)C(=O)NCC(=O)N[C@@H](CS)C(=O)N[C@@H](CCC(=O)O)C(=O)N[C@@H](CC(C)C)C(=O)O [TRO Di salt] (For-MDGCEL-OH)	0 area%	2,75 area%	0,00 area%	96,51 area%	0,00 area%	4,20 area%	0,60 area%	93,87 area%	
CSCC[C@H](NC=O)C(=O)N[C@@H](CC(=O)O)C(=O)NCC(=O)N[C@@H](CS)C(=O)N[C@@H](CCC(=O)O)C(=O)N[C@@H](CC(C)C)C(=O)O [TRO Tri salt] (For-MDGCEL-OH)	0 area%	8,24 area%	0,63 area%	87,27 area%	0,00 area%	11,40 area%	1,28 area%	78,60 area%	
CSCC[C@H](NC=O)C(=O)N[C@@H](CC(=O)O)C(=O)NCC(=O)N[C@@H](CS)C(=O)N[C@@H](CCC(=O)O)C(=O)N[C@@H](CC(C)C)C(=O)O [di-sodium salt] (For-MDGCEL-OH)									time to complete dissolution after addition of NaOH ([5]; aqueous slurry of Foxy-5 25 g/L): ≤ 10 min; aspartimide detected after lyophilization ([5]; starting material aspartimide <0.1%, HPLC): 0.79%; dimer detected after lyophilization ([5]; starting material dimer <0.1%, HPLC): 0.07%
CSCC[C@H](NC=O)C(=O)N[C@@H](CC(=O)O)C(=O)NCC(=O)N[C@@H](CS)C(=O)N[C@@H](CCC(=O)O)C(=O)N[C@@H](CC(C)C)C(=O)O [mono-sodium salt] (For-MDGCEL-OH)									dissolution after NaOH addition ([5]; aqueous slurry of Foxy-5 25 g/L, 1 eq. NaOH, pH=3.84): could not be completely dissolved
NC(CO)(CO)CO [tromethamine]									pKa of the salt-forming base [6]: 8.0
